pIC50: −log10 of the molar value.

T1 sequence (Q93009 whole entry): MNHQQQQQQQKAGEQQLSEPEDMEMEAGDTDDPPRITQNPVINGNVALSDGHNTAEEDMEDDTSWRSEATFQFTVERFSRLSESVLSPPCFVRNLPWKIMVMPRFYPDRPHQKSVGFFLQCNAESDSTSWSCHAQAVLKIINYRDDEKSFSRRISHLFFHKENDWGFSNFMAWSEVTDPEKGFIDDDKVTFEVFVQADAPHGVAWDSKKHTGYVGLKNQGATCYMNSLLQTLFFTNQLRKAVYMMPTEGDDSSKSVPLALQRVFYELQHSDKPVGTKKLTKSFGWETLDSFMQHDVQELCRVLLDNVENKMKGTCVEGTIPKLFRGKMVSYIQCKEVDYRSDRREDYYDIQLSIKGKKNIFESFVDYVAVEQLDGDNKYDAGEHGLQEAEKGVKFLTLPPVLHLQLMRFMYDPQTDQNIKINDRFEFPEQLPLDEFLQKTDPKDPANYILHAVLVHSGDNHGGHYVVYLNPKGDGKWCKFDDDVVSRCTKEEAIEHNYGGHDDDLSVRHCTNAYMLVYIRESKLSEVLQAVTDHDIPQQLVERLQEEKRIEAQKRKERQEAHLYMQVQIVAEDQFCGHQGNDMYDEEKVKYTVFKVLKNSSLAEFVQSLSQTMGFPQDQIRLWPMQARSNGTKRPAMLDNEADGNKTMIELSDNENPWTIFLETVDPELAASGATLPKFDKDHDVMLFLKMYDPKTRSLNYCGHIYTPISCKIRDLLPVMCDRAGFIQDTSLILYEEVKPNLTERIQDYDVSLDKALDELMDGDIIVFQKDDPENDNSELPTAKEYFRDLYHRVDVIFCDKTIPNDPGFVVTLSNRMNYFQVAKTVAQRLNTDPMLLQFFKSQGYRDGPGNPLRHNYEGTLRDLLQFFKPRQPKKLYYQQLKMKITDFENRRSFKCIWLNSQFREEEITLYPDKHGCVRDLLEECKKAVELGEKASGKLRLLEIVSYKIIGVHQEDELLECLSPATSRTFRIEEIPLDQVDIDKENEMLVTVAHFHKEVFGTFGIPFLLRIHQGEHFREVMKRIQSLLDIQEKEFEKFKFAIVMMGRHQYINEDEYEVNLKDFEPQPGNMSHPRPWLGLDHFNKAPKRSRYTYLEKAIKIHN

The test concerns the target T1, USP7 (Homo sapiens, UniProt Q93009).
T1 construct: The USP7 construct was PCR amplified and cloned into a pFLAG-CMV-6a vector (Sigma-Aldrich) with an N-terminal FLAG tag; made in house; host or cells: HEK293T
The experiment in a line: USP7 biochemical IC50 assay (fluorescence polarisation, TAMRA labelled peptide linked to ubiquitin via an iso-peptide bond). Conditions: 30 min pre-incubation of enzyme and compound, read after 2 hr incubation at room temperature, read-out: IC50 range. The essentials: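 Fluorescence polarisation at 540 nm excitation/590 nm emission, read immediately and after 2 hr at room temperature, following addition of 50 nM TAMRA-labelled iso-peptide ubiquitin substrate.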
For orientation: Fluorescence polarisation rises when a labelled molecule tumbles more slowly, as on binding a larger partner.
`COc1ccc(C#N)c(-c2cccc3c2CN(C#N)C3)n1` [Example 173, 4-(3-cyano-6-methoxypyridin-2-yl)isoindoline-2-carbonitrile]: the pIC50 is 4.52 to 5.00. For `CC(=O)Nc1cc2c(c(-c3ccccc3)c1)CN(C#N)C2` [Example 57] the value was 5.00 to 6.00; for `CN1CCOC(CNc2nc3c(c(-c4cccnc4)n2)CN(C#N)C3)C1` (centres unmarked) [Example 192, 2-(((4-methylmorpholin-2-yl)methyl)amino)-4-(pyridin-3-yl)-5,7-dihydro-6H-pyrrolo[3,4-d]pyrimidine-6-carbonitrile], 5.00 to 6.00. In the case of `N#CN1Cc2nc(NCc3ccccn3)cc(-c3ccc(F)cc3)c2C1` [Example 247, 4-(4-fluorophenyl)-2-((pyridin-2-ylmethyl)amino)-5,7-dihydro-6H-pyrrolo[3,4-b]pyridine-6-carbonitrile], the pIC50 was 5.00 to 6.00.

For the molecule `N#CN1Cc2cccc(-c3ccnc(C(=O)NCc4ccccc4)c3)c2C1` [Example 79, N-benzyl-4-(2-cyanoisoindolin-4-yl)picolinamide], the pIC50 is 5.00 to 6.00. On to `CN1CC(C(=O)Nc2cc3c(c(-c4ccccc4)c2)CN(C#N)C3)CC1=O` (centres unmarked) [Example 52, N-(2-cyano-7-phenylisoindolin-5-yl)-1-methyl-5-oxopyrrolidine-3-carboxamide], for which the pIC50 was > 6.00. Then `Cc1ccc(-c2cccc3c2CN(C#N)C3)c(C(N)=O)c1` [Example 3, 2-(2-cyanoisoindolin-4-yl)-5-methylbenzamide], with 5.00 to 6.00; and `COCCc1cc2c(c(-c3ccc(C#N)cc3)c1)CN(C#N)C2` [Example 254, 4-(4-cyanophenyl)-6-(2-methoxyethyl)isoindoline-2-carbonitrile], with 5.00 to 6.00. Regarding `COc1ccc(-c2cccc3c2CN(C#N)C3)c(C#N)c1` [Example 171, 4-(2-cyano-4-methoxyphenyl)isoindoline-2-carbonitrile], the pIC50 is 5.00 to 6.00. `CN(C)c1nc2c(c(N3CCC(Oc4ccccc4)CC3)n1)CN(C#N)C2` [Example 205, 2-(dimethylamino)-4-(4-phenoxypiperidin-1-yl)-5,7-dihydro-6H-pyrrolo[3,4-d]pyrimidine-6-carbonitrile]: the pIC50 is 5.00 to 6.00. Regarding `N#CN1Cc2cccc(-c3cnc4[nH]ccc4c3)c2C1` [Example 9, 4-(1H-pyrrolo[2,3-b]pyridin-5-yl)isoindoline-2-carbonitrile], the pIC50 is 5.00 to 6.00. Then `COc1cccc(-c2nc3c(c(N4CCCC4)n2)CN(C#N)C3)c1` [Example 136, 2-(3-methoxyphenyl)-4-(pyrrolidin-1-yl)-5,7-dihydro-6H-pyrrolo[3,4-d]pyrimidine-6-carbonitrile], with 4.00 to 4.52; and `N#Cc1cc2c(c(-c3ccc(F)cc3C(N)=O)c1)CN(C#N)C2` [Example 296, 2-(2,6-dicyanoisoindolin-4-yl)-5-fluorobenzamide], with 5.00 to 6.00. For `CN1CC(c2cc3c(c(-c4ccccc4)c2)CN(C#N)C3)CCC1=O` (centres unmarked) [Example 262, 6-(1-methyl-6-oxopiperidin-3-yl)-4-phenylisoindoline-2-carbonitrile] the value was 5.00 to 6.00; for `CC(=O)Nc1nc2c(c(-c3ccccc3)n1)CN(C#N)C2` [Example 104, N-(6-cyano-4-phenyl-6,7-dihydro-5H-pyrrolo[3,4-c]pyrimidin-2-yl)acetamide], 5.00 to 6.00; for `N#Cc1ccc(-c2c(F)ccc3c2CN(C#N)C3)c(C(N)=O)c1` [Example 260, 5-cyano-2-(2-cyano-5-fluoroisoindolin-4-yl)benzamide], 5.00 to 6.00.

With `CN1CCC[C@@H](C(=O)Nc2cc3c(c(-c4ccc(Cl)cc4)c2)CN(C#N)C3)C1` [Example 33, (R)-N-(7-(4-chlorophenyl)-2-cyanoisoindolin-5-yl)-1-methylpiperidine-3-carboxamide], the pIC50 was > 6.00.

For `COc1ccc(C#N)c(-c2cccc3c2CN(C#N)C3)c1` [Example 172, 4-(2-cyano-5-methoxyphenyl)isoindoline-2-carbonitrile], the pIC50 was 5.00 to 6.00.

For `CC(=O)Nc1cccc(-c2nc(NCC3CN(C)CCO3)nc3c2CN(C#N)C3)c1` (centres unmarked) [Example 195, N-(3-(6-cyano-2-(((4-methylmorpholin-2-yl)methyl)amino)-6,7-dihydro-5H-pyrrolo[3,4-d]pyrimidin-4-yl)phenyl)acetamide], the pIC50 is 5.00 to 6.00.

`N#CN1Cc2cccc(NC(=O)c3ccc(CNC(=O)OCc4ccccc4)cc3)c2C1` [Example 91, benzyl (4-((2-cyanoisoindolin-4-yl)carbamoyl)benzyl carbamate]: the pIC50 was 5.00 to 6.00. Then `CN1CCC[C@@H](C(=O)Nc2cc3c(c(-c4ccccc4)c2)CN(C#N)C3)C1` [Example 38, (R)—N-(2-cyano-7-phenylisoindolin-5-yl)-1-methylpiperidine-3-carboxamide], with > 6.00; and `CN1CCOC(CN(C)c2nc3c(c(-c4ccccc4)n2)CN(C#N)C3)C1` (centres unmarked) [Example 191, 2-(methyl((4-methylmorpholin-2-yl)methyl)amino)-4-phenyl-5,7-dihydro-6H-pyrrolo[3,4-d]pyrimidine-6-carbonitrile], with 5.00 to 6.00.

Take `Cc1nc2c(c(-c3ccc(F)cc3)n1)CN(C#N)C2` [Example 151, 4-(4-fluorophenyl)-2-methyl-5,7-dihydro-6H-pyrrolo[3,4-d]pyrimidine-6-carbonitrile]: the pIC50 was 5.00 to 6.00.

`N#CN1Cc2nc(NC(=O)C3CNC(=O)C3)nc(-c3ccccc3)c2C1` (centres unmarked) [Example 129, N-(6-cyano-4-phenyl-6,7-dihydro-5H-pyrrolo[3,4-c]pyrimidin-2-yl)-5-oxopyrrolidine-3-carboxamide]: the pIC50 was 4.52 to 5.00.

For the molecule `N#Cc1cc2c(c(-c3ccccc3C(N)=O)c1)CN(C#N)C2` [Example 231, 2-(2,6-dicyanoisoindolin-4-yl)benzamide], the pIC50 was 5.00 to 6.00. `CC(=O)Nc1nc2c(c(-c3cnn(C)c3)n1)CN(C#N)C2` [Example 107, N-(6-cyano-4-(1-methyl-1H-pyrazol-4-yl)-6,7-dihydro-5H-pyrrolo[3,4-d]pyrimidin-2-yl)acetamide]: the pIC50 is 4.52 to 5.00. As to `COc1ccccc1-c1nc2c(c(N3CCc4ccccc4C3)n1)CN(C#N)C2` [Example 140, 4-(3,4-dihydroisoquinolin-2(1H)-yl)-2-(2-methoxyphenyl)-5,7-dihydro-6H-pyrrolo[3,4-d]pyrimidine-6-carbonitrile], the pIC50 was 5.00 to 6.00. On to `C[C@@H](O)c1ccccc1-c1cccc2c1CN(C#N)C2` [Example 70, (R)-4-(2-(1-hydroxyethyl)phenyl)isoindoline-2-carbonitrile], for which the pIC50 is 5.00 to 6.00.

In the case of `N#CN1Cc2cccc(-c3cnc4ccccc4c3)c2C1` [Example 8, 4-(quinolin-3-yl)isoindoline-2-carbonitrile], the pIC50 was 5.00 to 6.00. In the case of `CC(=O)N(C)c1cc2c(c(-c3ccccc3)c1)CN(C#N)C2` [Example 58, N-(2-cyano-7-phenylisoindolin-5-yl)-N-methylacetamide], the pIC50 is 5.00 to 6.00.

In the case of `CN1CCOC(CNc2nc3c(c(-c4ccccc4)n2)CN(C#N)C3)C1` (centres unmarked) [Example 124, 2-(((4-methylmorpholin-2-yl)methyl)amino)-4-phenyl-5,7-dihydro-6H-pyrrolo[3,4-d]pyrimidine-6-carbonitrile], the pIC50 is 5.00 to 6.00. Take `C[C@@H](NC(=O)c1cccc(-c2cccc3c2CN(C#N)C3)c1)c1ccccc1` [Example 76, (R)-3-(2-cyanoisoindolin-4-yl)-N-(1-phenylethyl)benzamide]: the pIC50 was 5.00 to 6.00.

For orientation: pIC50 means −log10 of the IC50, conventionally taken in molar units.

Source of the values: patent publication US10683269B2 (MISSION THERAPEUTICS LIMITED, priority 2016, dated 2020).
